# Laboratory results from a melting point compilation (Tetko et al.; mined from patent text by program, amines drawn as free bases though some values may be those of a salt).
row,melting point [°C],Compound
1,252 to 255,Cc1ccc2c(Sc3ccc(Cl)c(Cl)c3)c(C(=O)O)[nH]c2c1
2,244 to 245,COc1ccccc1-n1c(=O)[nH]c2c(C(N)=O)nc(-c3ccc4[nH]c(SC)nc4c3)nc21
3,192 to 198,CC(C)C1(C)N=C(c2ccccc2C(=O)O)NC1=S (centres undefined)
4,192 to 194,Cc1cn(C(C)(C)C(=O)N(C)C)nc1-c1ccccc1Br
5,130 to 132,O=[N+]([O-])c1oc2ccccc2c1Br
6,65 to 80,CC(=O)C(=Cc1cccc([N+](=O)[O-])c1)C(=O)OC(C)C(C)(C)NCCC(c1ccccc1)c1ccccc1 (centres undefined)
7,211 to 214,O=C1CC(Nc2ccccc2)C(=O)N1c1ccccc1 (centres undefined)
8,126 to 127,COc1c(Cl)cc(C(C)(C)N(CC(C)=O)C(=O)Cc2ccccc2)cc1Cl
9,176 to 177,O=C(O)Cn1cccc(OCc2ccccc2)c1=O
10,163 to 164,COc1ccc(C2=NN(C3CCSCC3)C(=O)[C@H]3CC=CC[C@@H]23)c2c1OC(C)(C)C2 (relative stereo)
11,116,O=c1nc(-c2ccnc(OCc3ccccc3)c2)sc2ccccc12
12,213 to 215,Nc1ccc(Oc2cc(C34CCCCC3C(=O)NC4=O)c(F)cc2Cl)cc1 (centres undefined)
13,225,CCOC(=O)c1ccc(COCc2csc3nc(C(=O)NCc4ccnc(OCC5CCOC5)c4)[nH]c(=O)c23)cc1 (centres undefined)
14,86,CCCCCCCCCCCCCCCCCCN(C(=O)CCCCCCCCCCC)C1O[C@H](CO)[C@@H](O)[C@H](O)[C@H]1NC(=O)CCCCCCCCCCC (some centres undefined)
15,138,COc1cccc(C(=Cc2ccccc2)c2cccc(OC)c2OC)c1OC
16,62 to 63,OCc1cccc(C(O)(C(F)(F)F)C(F)(F)F)n1
17,205,CC(C)(C)OC(=O)NCC(=O)NCc1ccc(Nc2n[nH]c3ncnc(Nc4cccc(Cl)c4)c23)cc1
18,101 to 103,O=C1CCC(c2ccc(-c3ccccc3Cl)o2)O1 (centres undefined)
19,120 to 129,COc1cc(OC)nc(NC(=O)NS(=O)(=O)c2c(OC)ccc3snnc23)n1

row,melting point [°C],Compound
1,173 to 175,CCS(=O)(=O)CCC(=O)NNC(=O)N1Cc2cc(OC)ccc2Oc2ccc(Cl)cc21
2,240 to 244,CS(=O)(=O)c1ccc(C(=O)N2CCNC2=Nc2c(Cl)cccc2Cl)cc1
3,146 to 147,OC(c1ccccc1)c1nc(-c2ccncc2)cs1 (centres undefined)
4,152,CNC1NC(=O)c2ccccc21 (centres undefined)
5,145 to 148,COc1ccc(C(=O)N(C(=O)c2ccc(OC)cc2)c2nc3ccc([N+](=O)[O-])cc3c(NCc3ccccc3)c2C#N)cc1
6,190 to 191,CCC(CC)(CC(=O)Nc1ccc2ccc(OCc3ccc4ccccc4n3)cc2c1)C(=O)O
7,144 to 146,Cc1cc(SC2=C(O)CC(CCc3ccc(N)cc3)(CCc3ccc(N)cc3)OC2=O)c(C(C)(C)C)cc1CO
8,198,CC(C)n1c(S(=O)(=O)c2ccc(O)cc2)nc2ccccc21
9,184 to 186,CCOC(=O)C(=CN(C)C)C(=O)c1cc(F)c(N2CCC(NC(C)=O)C2)nc1Nc1ccc(F)cc1F (centres undefined)
10,122 to 123,O=Cc1cccc(NC(=O)c2ccccc2)c1
11,120 to 123,CN1CCC(=O)N(c2ccccc2Cl)C1=O
12,55 to 57,Cc1nsnc1-c1cccnc1
13,212 to 214,COc1cccc(C(N)=O)c1[N+](=O)[O-]
14,187 to 190,CN1C2CCC1CC(NC(=O)c1cc(Cl)cc3oc(-c4ccccc4)nc13)C2 (centres undefined)
15,53.9 to 55.5,FC(F)(F)Oc1ccc(C2=CCC3(CC2)OCCO3)cc1
16,130 to 135,O=[N+]([O-])c1ccc(O)cc1Br
17,138 to 140,CS(=O)(=O)N(Cc1cccnc1)c1ccc(Cl)cc1
18,160 to 162,CCCc1ccc(S(=O)(=O)c2ccc(F)cc2)cc1S(=O)(=O)NCCc1ccncc1
19,117 to 118,CCOC(=O)c1nc(-c2ccc(CN(C)C)cc2)[nH]c1-c1ccc(Cl)cc1

# More lines, now with the values behind:
row,Compound,melting point [°C]
1,COc1ccc(N2CCN(c3c(C)c(C)c4c(c3C)C(O)(c3ccc(C(F)(F)F)cc3)C(C)(C)O4)CC2)cc1 (centres undefined),181 to 183
2,O=C(OCc1ccccc1)N1CCN(c2ccc(-c3ccnc(Cl)n3)cn2)CC1,145 to 147
3,Cc1ccccc1C(Oc1cc(OCc2ccc3ocnc3c2)ccc1C#N)C(=O)O (racemic),189 to 191
4,CCCCCCOc1c(C=Cc2ccc(Br)cc2)ccc2c(OCCCCCC)c(C=Cc3ccc(Br)cc3)ccc12,170 to 172
5,Cc1ccc(C(=O)OCc2c3ccccc3cc3ccccc23)cc1,124
6,Nc1ccc(-c2noc(-c3cnn4c(C(F)(F)F)cc(-c5ccc(C(F)(F)F)c(Cl)c5)nc34)n2)cn1,234
7,CC1(CCCCn2c(=O)oc3ccccc32)Cn2cc([N+](=O)[O-])nc2O1 (centres undefined),155 to 158
8,CC(=O)C(=Cc1c(-c2ccccc2)nc2sc(C)nn12)C(=O)N(C)C,185 to 187
9,CCCCOCCOc1ccc(-c2ccc3c(c2)C=C(C(=O)Nc2ccc([C@H](O)c4ccccn4)cc2)CCN3S(C)(=O)=O)cc1,158 to 160
10,COC(=O)C(Cl)(Cl)Cc1c(Cl)cc(Cl)cc1Cl,56 to 57
11,CCCCCCNc1nc2nc(N)[nH]c(=O)c2s1,> 320
12,CC(=O)Nc1cscn1,176
13,N#Cc1ccc(N2CCCCC2)c2ccsc12,99 to 100
14,Cn1nc(-c2c(F)cc(Cl)c(=S)n2Cc2ccccc2)c(Cl)c1OC(F)F,135 to 138
15,COc1cc(C=O)c(Cl)c(Cl)c1OC,120 to 123
16,O=Cc1cc(-c2ccccc2F)n(S(=O)(=O)c2cccnc2)c1,106 to 108
17,COc1ccc(CN2CCNCC2)cc1,99 to 101
18,CCCCCn1c(C)c(C(=O)c2ccc(Cl)c3ccccc23)c2cccc(OC)c21,112
19,CC(=O)S[C@@H]1C[C@@H](C(=O)N(CCc2ccccc2)CC(=O)O)N(S(=O)(=O)c2ccc3ccccc3c2)C1,190 to 193
20,CCOC(=O)C(C)(C)NC(=O)c1c(Cl)c2cc(Oc3ccc(C(F)(F)F)cc3)ccc2n1-c1ccc(OC(C)C)cc1,135 to 137
21,O=C(O)CCC(=O)NCc1ccc2c(c1)-c1[nH]nc(-c3ccsc3)c1C2,235 to 236

row,Compound,melting point [°C]
1,COC(=O)c1cn(CCO)nc1[N+](=O)[O-],93 to 95
2,CCCc1c(CC)[nH]c(C(=O)OCC)c1C,86 to 87
3,Cc1ccc2c3c(c(=O)oc2c1)CN(Cc1ccc(Cl)cc1)CC3,147 to 149
4,CCn1c(=S)c2[nH]c(C(C)C)nc2n(CC)c1=O,168 to 170
5,CCOC(Nc1ccccc1)(OCC)C1(F)C=CN=C(C(=O)c2ccc(Cl)cc2)C1 (centres undefined),96 to 97
6,Cc1nc(-c2ccc(NS(=O)(=O)c3sc4ccc(F)cc4c3C)c(S(C)(=O)=O)c2)cs1,217 to 220
7,CSCc1cn(C)c2ccc(Cl)cc2c1=O,148 to 150
8,O=C(O)[C@H](COCc1ccccc1)NC1(c2ccccc2)c2ccccc2-c2ccccc21,137 to 138
9,COC(=O)c1cc(-c2cccc(Cl)c2)sc1N,85 to 87
10,COc1cc(OC)nc(C(=O)c2cccc(Cl)c2C(=O)N(C)C)n1,141 to 142
11,CN(C)CCN1C(=O)C(NC(=O)CCc2ccc(Cl)cc2Cl)N=C(c2ccccc2)c2ccccc21 (centres undefined),199 to 201
12,CCC1NC(=O)C2=C1c1ccc(Cl)cc1C(c1ccccc1Cl)=NC2 (centres undefined),233 to 235
13,Cc1nc(N)nc(N)c1N=Nc1ccc(Br)cc1,245 to 246
14,COC(=O)C=Cc1ccc(F)cc1,43 to 46
15,Cc1c(Cl)cccc1NC(=O)NCc1ccc2c(c1)CN(C1CCC(=O)NC1=O)C2=O (centres undefined),252 to 254
16,C#CCN1CC(=O)N(c2c(C)cccc2C)C1=S,117 to 121
17,NN1CCN(CCc2c[nH]c3ccccc23)CC1,115 to 117
18,Oc1ccc2c(c1)CCC2n1cc[nH]c1=S (centres undefined),208 to 209
19,CN(CCN1CCOCC1)C(=O)c1ccc(COc2cccc3c2CN(C2CCC(=O)NC2=O)C3=O)cc1 (centres undefined),120 to 122
20,O=C(O)CCCc1nc2nc[nH]c2c2nc(-c3ccccc3)nn12,280
21,O=C(O)CCc1cc2nc(Cl)ccc2n1S(=O)(=O)c1cccc2ccccc12,93

row,Compound,melting point [°C]
1,COc1cc(Nc2nccc(-c3ccc(CO)cc3)n2)cc(OC)c1OC,171 to 172
2,CC1CCCN(c2cccc3c2C(=N)NC3N)C1 (centres undefined),104
3,CC(C)(C)OC(=O)N[C@@H](Cc1ccccc1)[C@H](O)CNC1(c2cccc(C(F)(F)F)c2)CC1,124
4,O=C(NC1CC(=O)c2ccccc2C1)OCc1ccccc1 (centres undefined),79.5 to 81.5
5,CCCCn1c(CCC)cc(=O)c(C(=O)Nc2ccccc2)c1CCC,134 to 136
6,CCOC(=O)CCc1ccc(SCc2coc(/C=C/c3ccccc3)n2)cc1,77 to 78
7,COC1CCN2C(=O)c3cccc(NC(=O)Nc4ccccn4)c3C2C1 (centres undefined),166 to 168
8,Nc1ccccc1Nc1ccc(I)cc1,122 to 123
9,CCN1CCC(CCC2CCN(c3ncnc4cc(OC)c(OC)cc34)CC2)S1(=O)=O (centres undefined),130
10,CCOC(=O)Cc1csc(NC(=O)c2sc3ccc(OC)cc3c2OC(C)C)n1,91 to 92
11,CCC(=O)NCCC1CCc2c(F)cc3nn(C)cc3c21 (centres undefined),117 to 119
12,Nc1nc2ccccc2c2c1ncn2CCCCNC(=O)CCc1ccccc1,148 to 150
13,OCCOc1cccc2ocnc12,47 to 49
14,CN1CCNC(c2ccccc2)c2cc(Cl)ccc21 (centres undefined),66 to 68
15,COP(=S)(OC)Oc1nc(F)c(Cl)cc1Cl,< 20
16,CCOc1ccc(Oc2ccc(OCc3ccccc3)cc2)c([N+](=O)[O-])c1,96 to 96.5
17,Cc1cc(C)c(S(=O)(=O)NCC(O)(Cn2cncn2)c2ccc(Cl)cc2Cl)c(C)c1 (centres undefined),171 to 172
18,CN1Cc2c(-c3nc(CCl)cs3)ncn2-c2ccc(F)c(Cl)c2C1=O,234 to 235
19,COc1ccc(CC2CNC(=O)N2)cc1O (centres undefined),192 to 202
